# Laboratory results from patent US7208517B1, “Endothelin antagonists” (Abbott Labortories, priority 1994, dated 2007).
# What was measured:
# [1] = pH-solubility profile: maximum solubility in aqueous media at varying pH; format: physicochemical; conditions: aqueous buffer
# Source text: Such increased aqueous solubility, coupled with the enhanced potency resulting from decreased protein binding, might make such compounds preferred for development as parenteral agents.
# [2] = test system: male subjects with hormone refractory prostate cancer; assay: Acid phosphatase levels in serum of treated subjects; format: in vivo, human; conditions: subjects treated with placebo or 2.5 mg or 10 mg
# Experimental: Studies were performed on male subjects with asymptomatic hormone refractory prostate cancer with rising PSA levels and on male subjects with symptomatic hormone refractory prostate cancer with rising PSA levels and pain. Subjects in the phase II studies had castrate levels of testosterone, either due to pharmacologic intervention, via leuprolide (Lupron®) or goserelin (Zoladex®), or via surgical castration. Subjects received ABT-627 or placebo. The following tests were conducted:
# ABT-627 was formulated in 2.5 and 10 mg doses. An oral liquid formulation of ABT-627 was also prepared as follows: 1 mg/ml ABT-627, 50% glycerin, 14% alcohol, and water. Matching placebos were also provided.
# The enzyme Acid Phosphatase (ACP) catalyzes the hydrolysis of alpha-naphthyl phosphate to alpha-naphthol and inorganic phosphate. The alpha-naphthol immediately reacts with fast red TR salt to produce a yellow chromophore with an absorbance maximum at 405 nm. The rate of increase in absorbance at 405 nm is directly proportional to ACP activity in the sample. ACP activity was determined in the presence and absence of L-tartrate, the difference being attributed to prostatic acid phosphatase activity.
# Briefly, a subject population was treated with a placebo or 2.5 mg or 10 mg of ABT-627. […] The mixture was incubated for another 5 minutes, and a second absorbance was read to provide a final absorbance. […]
Structure (SMILES),"solubility ([1]; pH 5.1, about 25° C.) [µg/mL]","solubility ([1]; pH 6.5, about 25° C.) [µg/mL]","solubility ([1]; pH 7.1, about 25° C.) [µg/mL]","solubility ([1]; pH 7.6, about 25° C.) [µg/mL]","rate of increase and average change from baseline for acid phosphatase (AUC, FIG. 7) [2]"
CCCCN(C(=O)CN1CC(c2ccc3c(c2)OCO3)C(C(=O)O)C1c1ccc(OC)cc1)c1cccnc1 (centres unmarked) [compound 531],> 3300,> 3400,3540,3550,–
CCCCCN(CCCC)C(=O)CN1C[C@H](c2ccc3c(c2)OCO3)[C@@H](C(=O)O)[C@@H]1c1ccc(OC)cc1 [ABT-627],–,–,–,–,the rate of increase and the average change from baseline for acid phosphatase was decreased
